Laboratory results: PMC9916658, “Design and Synthesis of New Quinazolin-4-one Derivatives with Negative mGlu7 Receptor Modulation Activity and Antipsychotic-Like Properties” (International Journal of Molecular Sciences, 2023)

Columns and labels:
Experiment in all cases: CYP inhibition assay, recombinant enzyme, fluorescence
Assay type in all cases: in vitro ADME
CYP2B6 = target: T1, CYP2B6 (Homo sapiens, UniProt P20813); settings: test concentrations 1.1, 3.3 and 10 μM; read-out: Cytochrome P450 2B6 IC50
T1 construct: purchased BD Biosciences
T1 sequence (P20813 1-491): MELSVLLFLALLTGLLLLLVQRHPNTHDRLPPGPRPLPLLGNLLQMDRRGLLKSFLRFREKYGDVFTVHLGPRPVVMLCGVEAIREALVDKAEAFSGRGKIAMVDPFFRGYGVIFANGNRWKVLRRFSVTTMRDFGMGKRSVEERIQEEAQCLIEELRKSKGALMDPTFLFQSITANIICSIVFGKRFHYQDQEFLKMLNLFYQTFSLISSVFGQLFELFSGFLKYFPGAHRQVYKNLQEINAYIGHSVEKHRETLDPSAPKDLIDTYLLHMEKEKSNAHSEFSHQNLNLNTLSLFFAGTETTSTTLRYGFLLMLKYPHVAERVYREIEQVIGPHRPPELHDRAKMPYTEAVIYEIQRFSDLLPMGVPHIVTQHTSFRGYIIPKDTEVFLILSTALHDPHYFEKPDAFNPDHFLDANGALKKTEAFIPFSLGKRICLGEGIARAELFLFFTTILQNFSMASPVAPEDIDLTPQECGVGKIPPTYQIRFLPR
Protocol: (§1) CYP inhibition was performed with the recombinant enzymes CYP1A2, CYP2B6, CYP2C9, CYP2C19, CYP2D6, and CYP3A4 obtained from BD Biosciences. Compounds for CYP inhibition testing were prepared as 10 mM stock solutions in DMSO. Isoform-specific substrates were incubated at 37 °C individually with P450 enzymes (Table 5) and a range of test compound concentrations (1.1, 3.3 and 10 μM) in duplicate. Each isoform was tested separately with one reference compound, a known positive control inhibitor. During preincubation, the 96-well black plates were scanned with a fluorescence plate reader to eliminate false results originating from the autofluorescence of the test compounds. At the end of the incubation, product formation was monitored with fluorescence detection. A decrease in the formation of the metabolite compared to the “no inhibition” control samples was used to calculate the IC50 value.

CYP1A2 = target: T2, CYP1A2 (Homo sapiens, UniProt P05177); settings: test concentrations 1.1, 3.3 and 10 μM; read-out: Cytochrome P450 1A2 IC50
T2 construct: purchased BD Biosciences
T2 sequence (P05177 1-516): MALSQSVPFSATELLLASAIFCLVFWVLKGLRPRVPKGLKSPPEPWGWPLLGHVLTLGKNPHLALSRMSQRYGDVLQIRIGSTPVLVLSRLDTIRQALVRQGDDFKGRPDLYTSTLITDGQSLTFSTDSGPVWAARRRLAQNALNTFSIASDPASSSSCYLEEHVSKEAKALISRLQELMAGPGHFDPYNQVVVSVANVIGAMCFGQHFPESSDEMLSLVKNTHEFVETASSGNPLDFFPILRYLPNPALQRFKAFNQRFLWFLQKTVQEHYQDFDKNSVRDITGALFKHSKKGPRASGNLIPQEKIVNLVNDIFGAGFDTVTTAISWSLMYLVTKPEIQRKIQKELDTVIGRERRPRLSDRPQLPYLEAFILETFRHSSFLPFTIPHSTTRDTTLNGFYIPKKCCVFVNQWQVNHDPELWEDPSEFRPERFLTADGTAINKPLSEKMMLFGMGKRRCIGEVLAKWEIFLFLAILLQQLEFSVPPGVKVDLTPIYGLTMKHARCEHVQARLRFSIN
Protocol: as §1

CYP2C19 = target: T3, CYP2C19 (Homo sapiens, UniProt P33261); settings: test concentrations 1.1, 3.3 and 10 μM; read-out: Cytochrome P450 2C19 IC50
T3 construct: purchased BD Biosciences
T3 sequence (P33261 whole entry): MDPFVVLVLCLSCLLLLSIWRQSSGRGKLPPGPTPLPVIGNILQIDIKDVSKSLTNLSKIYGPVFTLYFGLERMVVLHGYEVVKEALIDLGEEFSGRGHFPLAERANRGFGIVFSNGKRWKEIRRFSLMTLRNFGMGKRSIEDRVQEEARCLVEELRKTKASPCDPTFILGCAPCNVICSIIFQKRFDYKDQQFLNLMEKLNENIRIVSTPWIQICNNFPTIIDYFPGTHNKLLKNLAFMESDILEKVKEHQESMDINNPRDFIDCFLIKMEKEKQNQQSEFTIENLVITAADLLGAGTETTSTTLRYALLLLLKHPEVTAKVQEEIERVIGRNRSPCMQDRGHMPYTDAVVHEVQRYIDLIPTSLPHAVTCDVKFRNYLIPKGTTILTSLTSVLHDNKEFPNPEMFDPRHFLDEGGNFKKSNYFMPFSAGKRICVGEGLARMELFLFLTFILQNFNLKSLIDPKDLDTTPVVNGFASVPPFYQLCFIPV
Protocol: as §1

CYP2D6 = target: T4, CYP2D6 (Homo sapiens, UniProt P10635); settings: test concentrations 1.1, 3.3 and 10 μM; read-out: Cytochrome P450 2D6 IC50
T4 construct: purchased BD Biosciences
T4 sequence (P10635 whole entry): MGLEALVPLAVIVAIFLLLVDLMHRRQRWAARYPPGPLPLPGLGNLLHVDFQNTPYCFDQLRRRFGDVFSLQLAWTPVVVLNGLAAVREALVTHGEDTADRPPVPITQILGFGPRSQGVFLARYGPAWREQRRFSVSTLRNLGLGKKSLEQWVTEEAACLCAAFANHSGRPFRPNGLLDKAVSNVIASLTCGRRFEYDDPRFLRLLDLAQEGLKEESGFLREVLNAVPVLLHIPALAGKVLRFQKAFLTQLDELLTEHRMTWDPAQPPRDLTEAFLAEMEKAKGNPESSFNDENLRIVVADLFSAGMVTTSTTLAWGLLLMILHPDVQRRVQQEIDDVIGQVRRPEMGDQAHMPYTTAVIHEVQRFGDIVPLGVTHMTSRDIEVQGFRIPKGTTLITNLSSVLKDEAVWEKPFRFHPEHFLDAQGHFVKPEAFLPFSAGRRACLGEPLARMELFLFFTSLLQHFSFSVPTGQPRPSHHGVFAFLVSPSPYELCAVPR
Protocol: as §1

`Cn1c(-c2ccccc2Cl)nc2ccc(-c3ccccc3)cc2c1=O` [ALX-065, 2-(2-chlorophenyl)-3-methyl-6-phenylquinazolin-4(3H)-one] was tested, and the IC50 (CYP2B6) was > 10 µM, the IC50 (CYP1A2) was 1.1 to 3.3 µM and the IC50 (CYP2C19) was 1.1 to 3.3 µM. For the same compound, the IC50 (CYP2D6) was > 10 µM.

For `COc1cccc(-c2ccc3nc(-c4ccccc4Cl)n(C)c(=O)c3c2)c1OC` [ALX-171, 2-(2-chlorophenyl)-6-(2,3-dimethoxyphenyl)-3-methylquinazolin-4(3H)-one], the IC50 (CYP2B6) was > 10 µM, the IC50 (CYP1A2) was 3.3 to 10 µM and the IC50 (CYP2C19) was 3.3 to 10 µM. The IC50 (CYP2D6) was > 10 µM.
